Legend:
Caco-2 cells = assay: Membrane permeability (Papp) across Caco-2 cell monolayer, apical to basolateral; format: in vitro ADME; conditions: Caco-2, apical to basolateral, 10 μM, 37° C.
Protocol: Determination of membrane permeability in all examples described herein was accomplished by the following procedure. This procedure is also used to determine whether a given prodrug falls within the scope of those claims given herein which relate to membrane permeability.
Caco-2 cells were seeded on Costar™ 12 mm diameter, 0.4 μm pore size transwell filters, and were cultured at 37° C., 5% CO2 in a humidified tissue culture chamber.
DMEM was equilibrated as a transport buffer in 37° C. water bath an hour before experiment. The cells were then equilibrated in transport buffer for 1 hr at 37° C.
Dosing solution (10 μM) was prepared by adding a 20 μL aliquot of a 10 mM stock solution of the prodrug to 20 mL of transport buffer.
Transport across Caco-2 cell monolayer was measured at 37° C., in the apical to basolateral direction (n=3).
Transport buffer was removed from both apical and basolateral compartment of filters. Dosing solution (0.2 mL) was added to the apical compartment of the cell layers on transwell filters, and 0.8 ml fresh pre-warmed transport buffer was added to basolateral compartment. Timing was started for transport, and at 5, 20, and 60 min after transport started, sample fluid (400 μL) was collected from the basolateral compartment. Fresh transport buffer (400 μL) was added back to the basolateral compartment, and the fluid was thoroughly mixed.
The apparent permeability coefficient (Papp, cm/sec), otherwise known herein as the membrane permeability, is determined from the following relationship: Papp=J/(ACo) where J (pmol/min) is the transport rate, meaning the rate of prodrug movement through the cell layer, A (cm^2) is the filter surface area, and Co (μM) is the initial dosing concentration.
Lucifer yellow (LY) was used as a paracellular permeability reference standard to determine integrity of cell layers used in the experiments. […] Fluorescence level in basolateral fluid sampled at 5, 20, and 60 min post dose was determined using Fluostar Galaxy (BMG Labtechnologies, Durham, N.C.) at excitation/emission wavelengths of 485/520 nm. […]

[1] = Pharmacokinetic study in rats (oral / intravenous), systemic half-life by LC-MS/MS; format: in vivo, rats (Sprague-Dawley); design: key to T1/2 Prodrug: NC: plasma concentration of prodrug was too low to calculate half-life, or undetected; conditions: Rat, SD in parenthesis; for T1/2 Prodrug: systemic half-life of intact prodrug; for T1/2 PPI: systemic half-life of the proton pump inhibitor
Protocol: (§1) Blood concentrations of the compounds omeprazole, lansoprazole, pantoprazole, rabeprazole, and test compounds were quantified using an achiral liquid chromatography tandem mass spectrometry method (LC-MS/MS). Systemic pharmacokinetic parameters were determined for omeprazole or lansoprazole using non-compartmental analysis in Watson® version 6.3, available from InnaPhase Corporation, Philadelphia, Pa.

[2] = Pharmacokinetic study in dogs (oral / intravenous), systemic half-life by LC-MS/MS; format: in vivo, dogs (beagle); design: key to T1/2 Prodrug: NC: plasma concentration of prodrug was too low to calculate half-life, or undetected; conditions: for T1/2 Prodrug / T1/2 PPI / half-life: Dog, SD in parenthesis; for T1/2 Prodrug: systemic half-life of intact prodrug; for T1/2 PPI / half-life: systemic half-life of the proton pump inhibitor; for t1/2: systemic half-life of parent PPI in dogs after oral administration; for half-life: beagle, blood, po, read-out: T1/2 PPI (converted)
Protocol: as §1

T1/2 Prodrug [1]	T1/2 PPI ([1]; in h)	T1/2 Prodrug [2]	T1/2 PPI [2]	SMILES	further results
NC	1.93 (1.41)	12.4 min	53.6 min	Cc1c(OCC(F)(F)F)ccnc1C[S+]([O-])c1nc2ccccc2n1S(=O)(=O)c1cccc(C(=O)O)c1 (stereo not shown) [Compound 7]	Permeability (Caco-2 cells): 0.16 ×10⁻⁶ cm/s; t1/2 [2]: 53.4 min
NC	1.80 (1.20)	NC	64.8 min	COc1ccc(S(=O)(=O)n2c([S+]([O-])Cc3nccc(OCC(F)(F)F)c3C)nc3ccccc32)cc1C(=O)O (stereo not shown) [Compound 8]	Permeability (Caco-2 cells): 0.23 ×10⁻⁶ cm/s; t1/2 [2]: 66 min
NC	0.341 (0.151)	NC	53.6 min	Cc1c(OCC(F)(F)F)ccnc1C[S+]([O-])c1nc2ccccc2n1S(=O)(=O)c1ccc(CC(=O)O)cc1 (stereo not shown) [Compound 9]	Permeability (Caco-2 cells): 0.34 ×10⁻⁶ cm/s; t1/2 [2]: 53.4 min
–	–	NC	0.989 (0.307)	Cc1c(OCC(F)(F)F)ccnc1C[S+]([O-])c1nc2ccccc2n1S(=O)(=O)c1ccc(OCC(=O)O)cc1 (stereo not shown) [Compound 10]	–
NC	0.933 (1.009)	NC	0.873 (0.288)	Cc1c(OCC(F)(F)F)ccnc1C[S+]([O-])c1nc2ccccc2n1S(=O)(=O)c1ccc(OCC(C)(C)C(=O)O)cc1 (stereo not shown) [Compound 11]	–
–	–	NC	55.9 min	Cc1c(OCC(F)(F)F)ccnc1C[S+]([O-])c1nc2ccccc2n1S(=O)(=O)c1ccc(CC(=O)O)c(CC(=O)O)c1 (stereo not shown) [Compound 12]	–
NC	2.35 (1.22)	7.32 min	106 min	Cc1ccc(C(=O)O)cc1S(=O)(=O)n1c([S+]([O-])Cc2nccc(OCC(F)(F)F)c2C)nc2ccccc21 (stereo not shown) [Compound 13]	–
–	0.536 (0.217)	7.08 min	83.4 min	COc1ccc(C(=O)O)cc1S(=O)(=O)n1c([S+]([O-])Cc2nccc(OCC(F)(F)F)c2C)nc2ccccc21 (stereo not shown) [Compound 14]	–
–	–	NC	55.4 min	Cc1c(OCC(F)(F)F)ccnc1C[S+]([O-])c1nc2ccccc2n1S(=O)(=O)c1ccc(CC(=O)O)cc1C(C)C (stereo not shown) [Compound 15]	–
NC	1.86 (0.74)	NC	60 min	Cc1c(OCC(F)(F)F)ccnc1C[S+]([O-])c1nc2ccccc2n1S(=O)(=O)c1ccc(C(=O)O)c(OCC(=O)O)c1 (stereo not shown) [Compound 16]	–
–	–	89.4 min	67.8 min	Cc1cc(OCC(=O)O)cc(C(C)C)c1S(=O)(=O)n1c([S+]([O-])Cc2nccc(OCC(F)(F)F)c2C)nc2ccccc21 (stereo not shown) [Compound 17]	–
–	–	5.39 min	54.5 min	Cc1c(OCC(F)(F)F)ccnc1C[S+]([O-])c1nc2ccccc2n1S(=O)(=O)c1ccc(C(=O)O)cc1 (stereo not shown) [Compound 18]	–
–	–	110 min	29 min	Cc1ccc(S(=O)(=O)n2c([S+]([O-])Cc3nccc(OCC(F)(F)F)c3C)nc3ccccc32)cc1CCC(=O)O (stereo not shown) [Compound 19]	–
–	–	67.2 min	29.5 min	COCCCOc1ccnc(C[S+]([O-])c2nc3ccccc3n2S(=O)(=O)c2cccc(C(=O)O)c2)c1C (stereo not shown) [Compound 30]	–
–	–	50.6 min	51.3 min	COCCCOc1ccnc(C[S+]([O-])c2nc3ccccc3n2S(=O)(=O)c2cc(C(=O)O)ccc2C)c1C (stereo not shown) [Compound 31]	–
–	–	31.6 min	91.2 min	COCCCOc1ccnc(C[S+]([O-])c2nc3ccccc3n2S(=O)(=O)c2c(C)cc(OCC(=O)O)cc2C)c1C (stereo not shown) [Compound 32]	–
–	–	44.8 min	53.6 min	COCCCOc1ccnc(C[S+]([O-])c2nc3ccccc3n2S(=O)(=O)c2ccc(C(=O)O)cc2)c1C (stereo not shown) [Compound 33]	–
NC	1.11 (0.71)	–	–	Cc1cc(OCC(=O)O)cc(C)c1S(=O)(=O)n1c([S+]([O-])Cc2nccc(OCC(F)(F)F)c2C)nc2ccccc21 (stereo not shown) [Compound 34]	–
NC	1.84 (0.87)	–	–	Cc1c(OCC(F)(F)F)ccnc1C[S+]([O-])c1nc2ccccc2n1S(=O)(=O)c1ccc(OCC(=O)O)c(OCC(=O)O)c1 (stereo not shown) [Compound 35]	–
NC	0.389 (0.085)	–	–	Cc1c(OCC(F)(F)F)ccnc1C[S+]([O-])c1nc2ccccc2n1S(=O)(=O)c1ccc(C(=O)O)cc1 (stereo not shown) [Compound 36]	–
NC	2.19 (0.80)	–	–	Cc1cc(C(=O)O)ccc1S(=O)(=O)n1c([S+]([O-])Cc2nccc(OCC(F)(F)F)c2C)nc2ccccc21 (stereo not shown) [Compound 37]	–
–	1.43 (0.42)	–	–	COc1ccc(S(=O)(=O)n2c([S+]([O-])Cc3nccc(OCC(F)(F)F)c3C)nc3ccccc32)cc1CCC(=O)O (stereo not shown) [Compound 38]	T1/2 Prodrug ([1]; in h): 1.04 (0.35)
–	–	–	–	Cc1c(OCC(F)(F)F)ccnc1C[S+]([O-])c1nc2ccccc2[nH]1 (stereo not shown) [Lansoprazole, reference compound]	half-life [2]: 34.4 min; t1/2 [2]: 34.2 min
–	–	–	–	COc1ccc2[nH]c([S+]([O-])Cc3ncc(C)c(OC)c3C)nc2c1 (stereo not shown) [Omeprazole, reference compound]	half-life [2]: 41.8 min; t1/2 [2]: 42 min

From US20060241037A1, “Compositions comprising trefoil factor family peptides and/or mucoadhesives and proton pump ihhibitor prodrugs” (ALLERGAN INC., priority 2003, published 2006)
